Reference: patent US20210196789A1, “HEPARIN-BINDING DOMAIN OF IGFBP-2 IN THE TREATMENT OF METABOLIC DISORDERS” (AMOLYT PHARMA, priority 2018, published 2021)
“Also recorded” adds a separate entry of the source. No end group written: not given here. *: point of attachment. Stearoyl = CCCCCCCCCCCCCCCCCC(=O)*

Tests used:
3T3-LI adipocytes = assay: [3H]-2-deoxyglucose uptake by fully differentiated 3T3-LI adipocytes; assay type: cell-based, mouse; conditions: 3 μg/ml for 24 hours
Experimental: 3T3-LI cells are a mouse fibroblast cell line which when cultured under specific conditions, differentiate into adipocytes.
Differentiation of 3T3-LI cells into adipocytes was achieved using the following protocol. 3T3-L1 cells were seeded in 24-well plates and cultured in 3T3-L1 maintenance medium (DMEM containing 10% fetal bovine serum, 4 mM L-glutamine 1 mM, sodium pyruvate) until the cells were 100% confluent. The cells were then fed with 3T3-L1 maintenance medium and cultured for a further 48 h. To initiate differentiation into adipocytes, the medium was changed to Differentiation medium 1 (DMEM containing 10% fetal bovine serum, 4 mM L-glutamine, 1 mM sodium pyruvate, 0.5 mM IBMX, […]), and cultured for a further 2 days. The medium was then changed to Differentiation medium 2 (DMEM containing 10% fetal bovine serum, 4 mM L-glutamine, 1 mM sodium pyruvate, 1 mg/ml insulin), and cultured for a further 2 days. The medium was then changed to Adipocyte Maintenance medium (DMEM containing 10% fetal bovine serum, 4 mM L-glutamine, 1 mM sodium pyruvate), and cultured for a further 7 days. During this time, the medium was changed every other day. The now fully differentiated adipocytes were utilized for glucose uptake experiments (day 11 from initiation of differentiation). Stock solutions of the HBD1 peptides to be tested were prepared by dilution with 0.9% NaCl solution under sterile conditions in a laminar flow cabinet to a concentration of 1 mg/ml, based on net peptide content. The solutions were homogenized by gentle inversion. Test items were prepared from the stock solutions, and remaining stock solution was aliquoted and stored at −20° C. and used without repeated freeze-thaw cycles.
Glucose uptake experiments were carried our using the following protocol. Prior to beginning the experiment, 100 ml of Krebs Ringer bicarbonate buffer (KRBB)(25 mM Hepes pH 7.4, 118 mM NaCl, 5 mM NaHCO3, 4.7 mM KCl, 1.2 mM KH2PO4, 1.2 mM MgSO4, 2.5 mM CaCl2, 0.2% BSA—Filtered using a 0.2 μm filter) and 100 ml of Incubation medium (DMEM containing 4 mM L-glutamine, 1 mM sodium pyruvate, 1% penicillin streptomycin, 0.2% BSA—Filtered using a 0.2 μm filter) were pre-warmed to 37° C., and 500 ml of KRBB was chilled on ice. Stock solutions of test compounds were diluted to 3 μg/ml final concentrations in pre-warmed Incubation medium and in pre-warmed KRBB. Insulin (positive control), previously diluted 1:1000 in sterile 0.9% NaCl, was further diluted in 10 ml of both medium and buffer to a final concentration of 1 nM. All traces of the medium were carefully removed from the cells using a fine tip. 1 ml of incubation medium containing study compounds or vehicle was added to the appropriate wells. No insulin was added at this time. […]

[1] = system: C2C12 mouse skeletal muscle myotubes; assay: 3H-2-deoxyglucose uptake by fully differentiated C2C12 myotubes; assay type: cell-based
Experimental: The studies were performed using cultured, fully differentiated C2C12 mouse skeletal muscle myotubes. The cells were prepared by growing C2C12 cells to confluent density in DMEM with 25 mM glucose and 10% fetal bovine serum in 24 well plates. At this time, the medium was changed to differentiation medium (DMEM with 25 mM glucose and 2% horse serum) for 6 days with medium changed every third day. The various treatments were diluted in serum-free medium and, after washing the cells with serum-free medium, were added to the cells and incubated for 2 hours or alternative times, depending on the treatment. At the end of incubation period, the media was removed and 1.0 ml of glucose-free Krebs ringer bicarbonate buffer (pH 7.4), containing the same treatments, was added and incubation continued for 10 minutes. At the end of the 10 min incubation period, ^3H-2-deoxyglucose ([…]) (specific activity=8 Ci/mmole) was added directly to all wells, and the incubation continued for an additional 10 min. The wells were then rinsed three times with ice cold phosphate buffered saline, the cells were extracted with 0.5 N NaOH, and the ^3H-2-deoxyglucose content of the cell lysate quantitated by scintillation counting.

AMPK = AMPK phosphorylation (pT172 immunoblot) in C2C12 myotubes; assay type: cell-based, mouse
Experimental: (§1) For signaling studies the cells were prepared the same way except 6-well plates were used. After 6 days incubation in differentiating medium, the cells were washed with serum-free medium. The various treatments were then added in serum free medium containing 0.1% BSA. HBD1 peptides were added and incubated for 8 hours. When utilizing IGF-I, incubation was for 15 minutes after IGF-1 addition. Following incubation the cells were lysed in RIPA buffer and sonicated. The cell lysate was centrifuged and the supernatant analyzed for either Akt or AMPK by SDS PAGE using a 10% gel followed by immunoblotting with the appropriate antibody.
To examine further the intracellular transduction pathways utilized by the HBD1 peptides, following treatment with HBD1 peptide SEQ ID NO: 73 (C18:0-HLGLEEPKK), cell lysate proteins, were separated by SDS PAGE and immunoblotted with anti-pAMPK T172.

mice = mice (Xi, 2013); cited from earlier work
[2] = system: B6.V-Lepob/J mice (ob/ob); assay: Intraperitoneal glucose tolerance test in ob/ob mice after 15 days of twice daily treatment; assay type: in vivo, mouse; conditions: 3 mg/kg s.c. twice daily for 15 days, 45 min after 1 g/kg i.p. glucose, vs vehicle
Experimental: After being acclimatized 7 days to the laboratory conditions, nine-week-old male B6.V-Lepob/J. mice (Charles River) were subcutaneously administered with vehicle (NaCl 0.9%) or with a peptide as set forth in SEQ ID NO: 73 (C18:0-HLGLEEPKK) at 3 mg/kg (n=5 animals for each group) twice daily for 15 days. On day 15, fasted (overnight) mice were injected intraperitoneally with glucose at 1 g/kg. Plasma blood glucose (expressed as mmol/L) was recorded at 45 minutes post glucose injection.

[3] = system: glucose telemetered ob/ob mice; assay: Basal blood glucose and IPGTT in glucose-telemetered ob/ob mice, 28 days of twice daily treatment; assay type: in vivo, mouse; conditions: for glucose intolerance: glucose telemetered ob/ob mice, 1 and 3 mg/kg s.c. twice daily, 27-28 days, vs vehicle
Experimental: To further assess the effects of HBD1 peptides on glucose and insulin metabolisms, basal blood glucose and glucose response to an intraperitoneal glucose tolerance test (IPGTT) were assessed in glucose-telemetered obese ob/ob mice after twice daily administration of HBD peptides for 28 consecutive days. Implantation of glucose telemetry device (HD-XG, Data Science International) was carried out according to known protocols.
A dose of HBD peptide fragment of SEQ ID NO: 73 (C18:0-HLGLEEPKK) was administered twice daily at 8-hour±1 hour interval between the two daily administrations. 24 V-Lepob/J (Ob/Ob) male mice (The Jackson Laboratory, Farmington, Conn. USA) were administered subcutaneously with vehicle (NaCl 0.9%) (Control group) or with the peptide at 1 and 3 mg/kg (Test groups) (n=5-8 animals for each group) twice daily for 28 days. The first day of dosing was designated as Day 1. Bolus injection was carried out using a sterile syringe and the needle was introduced subcutaneously, 2 to 4 injection sites were used in rotation. The hair of the animals on the injection area was clipped prior to the first injection and then as necessary during the treatment period. The volume administered was 5 mL/kg/administration. Individual dose volumes were calculated using the latest body weight. On day 27, 16-hour mean blood glucose levels were assessed in normal fed conditions. On day 28, fasted (4 hours) mice were injected intraperitoneally with glucose at 1 g/kg. Plasma blood glucose profile (expressed as mg/dL) was recorded every minute up to 3-hour post glucose injection.
Intraperitoneal glucose tolerance test (IPGTT)—On the morning of the IGPTT day (day 28), 2-hour fasted animals were treated with vehicle or with the HBD fragment. Glucose solution was administered 2 hours±15 minutes post-dosing (vehicle or a peptide as set forth in SEQ ID NO: 73 (C18:0-HLGLEEPKK). Blood glucose was monitored from 10 minutes before (fasting condition) to 3-hour post-glucose challenge. Food was re-introduced 4 hours post-glucose challenge. The second treatment of the day (the HBD fragment or vehicle) was performed 2 hours after food re-introduction.

Akt = Akt phosphorylation (pS473 immunoblot) in C2C12 myotubes; assay type: cell-based, mouse; conditions: 8 hours incubation (FIG. 6)
Experimental: as §1
To examine the intracellular transduction pathways utilized by the HBD1 peptides, following treatment with HBD1 peptide SEQ ID NO: 73 (C18:0-HLGLEEPKK), cell lysate proteins were separated by SDS PAGE and immunoblotted with anti-Akt pS473 antibodies.

[4] = listed as acylated HBD1 (3-11) fragment

## HHLGLEEPKK [SEQ ID NO: 16]
3T3-LI adipocytes
  glucose uptake by 3T3-LI adipocytes: stimulated increased glucose uptake

## c1cc(-c2cnn3cc(-c4ccc(OCCN5CCCCC5)cc4)cnc23)ccn1 [Compound C, reference compound]
[1]; C2C12 myotubes, SEQ ID NO: 73 alone or together with insulin (FIG. 8)
  effect on SEQ ID NO: 73-stimulated glucose uptake: completely abolished; also recorded: prevented
AMPK; C2C12 myotubes treated with SEQ ID NO: 73 (FIG. 7)
  effect on SEQ ID NO: 73-induced AMPK phosphorylation: completely abolished; also recorded: prevented

## HLGLEEPKK [SEQ ID NO: 10]
3T3-LI adipocytes
  glucose uptake by 3T3-LI adipocytes: stimulated increased glucose uptake

## KHHLGLEEPKKLR [SEQ ID NO: 1]
3T3-LI adipocytes
  glucose uptake by 3T3-LI adipocytes: stimulated increased glucose uptake
mice
  body weight and fat accumulation: decrease body weight and fat accumulation
  glucose tolerance: no effect on glucose tolerance

## C18:0-HLGLEEPKK (Stearoyl-HLGLEEPKK) [SEQ ID NO: 73]
[2]
  plasma glucose levels in response to the IP glucose tolerance test: reduced the plasma glucose levels
[2]; [4]
  plasma glucose levels in response to the IP glucose tolerance test: improves glucose intolerance
[3]; 3 mg/kg, after 4 weeks
  effect on fasting glucose and glucose excursion at the high dose: marked effect
[3]; after 4 weeks of administration, 3-hour profile after 1 g/kg i.p. glucose
  glucose excursion following IPGTT: decreased
[3]; after 4 weeks of administration, 10 min prior to IPGTT
  fasting glucose levels: decreased fasting glucose levels
[3]; day 27, normal fed conditions
  16-hour average blood glucose levels: markedly decrease 16-hour average blood glucose levels
[3]
  glucose intolerance: improved glucose intolerance in a dose-dependent manner
[3]; [4]
  glucose intolerance: improves glucose intolerance
3T3-LI adipocytes
  glucose uptake by 3T3-LI adipocytes: stimulated increased glucose uptake
[1]; 1.5 μM together with insulin (FIG. 8)
  glucose uptake by C2C12 myotubes with insulin, separate experiment: act additively with insulin; also recorded: in an additive manner with insulin
[1]; 1.5 μM, alone (FIG. 8)
  glucose uptake by C2C12 myotubes, separate experiment: increased glucose uptake
[1]; 0.8, 1.5, 2.3 μM, 1.5 μM for 2, 4, 16 hours, vs vehicle-treated controls (FIGS. 5A-5B)
  glucose uptake by C2C12 myotubes: stimulated increased glucose uptake as compared with vehicle-treated controls in both a dose- and time-dependent manner; also recorded: dose-dependent (FIG. 5A) and time-dependent (FIG. 5B) increases in glucose uptake
[1]; in combination with insulin (FIG. 5C)
  glucose uptake by C2C12 myotubes in combination with insulin: additive increase in glucose uptake
Akt
  phosphorylated Akt: dose-related increase in phosphorylated Akt; also recorded: dose-dependent phosphorylation (activation) of the Akt pathway
AMPK; C2C12 myotubes, 8 hours incubation (FIG. 7)
  phosphorylated AMPK: dose-dependent increase in phosphorylated AMPK; also recorded: dose-dependent phosphorylation (activation) of the AMPK pathway
